Molecules are shown by their SMILES. ≈ marks a conversion by molar mass, not a printed value.

This assay has as its system Mycobacterium tuberculosis H37Rv. The assay is described as follows: Inhibition of MmpL3 in clinical isolates of drug sensitive Mycobacterium tuberculosis H37Rv after 7 to 14 days by alamar blue assay. For orientation: Resazurin is reduced to fluorescent resorufin, in cell work by metabolically active cells.
Turning to `Cc1cccc2[nH]c(C(=O)NC3CCCCCCC3)cc12`, the MIC90 turned out to be 0.11 µM (≈ 0.0313 µg/mL).

Compound `Cc1cccc2[nH]c(C(=O)NC3CCCCCC3)cc12` returned an MIC90 of 0.93 µM (≈ 0.251 µg/mL). The value for `Nc1cccc2[nH]c(C(=O)NC3CCCCCCC3)cc12` was 20 µM (≈ 5.71 µg/mL); that for `CN1C2CCCC1CC(NC(=O)c1cc3c(Cl)cc(Cl)cc3[nH]1)C2` (centres undefined) was 10.9 µM (≈ 3.99 µg/mL). Regarding `Cc1cccc2cc(C(=O)NC3CCCCCC3)[nH]c12`, the MIC90 is 30 µM (≈ 8.11 µg/mL).

Take `C[C@@H]1[C@H]2C[C@@H](C[C@H]1NC(=O)c1cc3ccc(Br)cc3[nH]1)C2(C)C`: the MIC90 came to 0.01 µM (≈ 0.00375 µg/mL).

`O=C(NC1Cc2ccccc2C1)c1cc2c(Cl)cc(Cl)cc2[nH]1` registered an MIC90 of 0.72 µM (≈ 0.249 µg/mL). The value for `Nc1ccc2[nH]c(C(=O)NC3CCCCCCC3)cc2c1` was 80 µM (≈ 22.8 µg/mL); that for `Cc1ccc2[nH]c(C(=O)NC3CCCCCC3)cc2c1` was 7.4 µM (≈ 2 µg/mL). The value for `Cc1ccc2cc(C(=O)NC3CCCCCCC3)[nH]c2c1` was 0.11 µM (≈ 0.0313 µg/mL). The value for `Cc1cc(C)c2cc(CNC3CCCCCCC3)[nH]c2c1` was 0.31 µM (≈ 0.0882 µg/mL); that for `COc1cc(OC)c2cc(C(=O)NC3CCCCCCC3)[nH]c2c1` was 0.19 µM (≈ 0.0628 µg/mL); that for `CCCCCCCNC(=O)c1cc2c(Cl)cc(Cl)cc2[nH]1` was over 300 µM. The compound `O=C(Nc1nc2ccc(OC(F)(F)F)cc2s1)C1CCCCCC1` returned an MIC90 of over 300 µM. `CC1(C)[C@@H]2CC[C@@H](CNC(=O)c3cc4c(Cl)cc(Cl)cc4[nH]3)[C@H]1C2` showed an MIC90 of 175 µM (≈ 63.9 µg/mL).

Turning to `Cc1cc(C)c2[nH]c(C(=O)NC3CCCCCC3)cc2c1`, the MIC90 worked out at 3.5 µM (≈ 0.995 µg/mL). The value for `COc1cc(OC)c2cc(C(=O)NC3CCCCCC3)[nH]c2c1` was 3.2 µM (≈ 1.01 µg/mL); that for `O=C(NC1Cc2ccccc2C1)c1cc2c(F)cc(F)cc2[nH]1` was 102 µM (≈ 31.9 µg/mL); that for `Cc1cc(C)c2cc(C(=O)NC3CCCCCCC3)[nH]c2c1` was 0.013 µM (≈ 0.00388 µg/mL). In turn, `CC(C)=CCC/C(C)=C/CNC(=O)c1cc2c(F)cc(F)cc2[nH]1` gave an MIC90 of over 192 µM. In turn, `O=C(NC1CCCCCCC1)c1cc2ccc(Br)cc2[nH]1` displayed an MIC90 of 0.09 µM (≈ 0.0314 µg/mL). With `Cc1ccc2[nH]c(C(=O)NC3CCCCCCC3)cc2c1`, the MIC90 amounted to 0.88 µM (≈ 0.25 µg/mL). `C[C@@H](NC(=O)c1cc2c(F)cc(F)cc2[nH]1)C1CCCCC1` returned an MIC90 of 13 µM (≈ 3.98 µg/mL). `CC1(C)[C@H]2CC[C@@]1(C)[C@H](NC(=O)c1cc3c(Cl)cc(Cl)cc3[nH]1)C2`: the MIC90 turned out to be 0.043 µM (≈ 0.0157 µg/mL). The value for `CC(C)=CCC/C(C)=C/CNC(=O)c1cc2c(Cl)cc(Cl)cc2[nH]1` was 11 µM (≈ 4.02 µg/mL); that for `C[C@@H](NC(=O)c1cc2c(Cl)cc(Cl)cc2[nH]1)C1CCCCC1` was 5.9 µM (≈ 2 µg/mL); that for `O=C(N[C@@H]1C[C@H]2CC[C@@H]1C2)c1cc2c(Cl)cc(Cl)cc2[nH]1` (relative stereo) was 0.39 µM (≈ 0.126 µg/mL). With `C[C@@H]1[C@@H](NC(=O)c2cc3c(Cl)cc(Cl)cc3[nH]2)C[C@H]2C[C@@H]1C2(C)C`, the MIC90 was found to be 0.086 µM (≈ 0.0314 µg/mL). Compound `C[C@@H]1[C@@H](NC(=O)c2cc3c(F)cc(F)cc3[nH]2)C[C@H]2C[C@@H]1C2(C)C` came in with an MIC90 of 0.19 µM (≈ 0.0632 µg/mL).

For the compound `Cc1cccc2cc(C(=O)NC3CCCCCCC3)[nH]c12`, the MIC90 was found to be 3.5 µM (≈ 0.995 µg/mL). In turn, `Cc1cc(C)c2cc(CNC(=O)C3CCCCCC3)[nH]c2c1` returned an MIC90 of 54 µM (≈ 16.1 µg/mL). The result for `Cc1cc(C)c2[nH]c(C(=O)NC3CCCCCCC3)cc2c1` reads 0.21 µM (≈ 0.0627 µg/mL); that for `O=C(NC12CC3CC(CC(C3)C1)C2)c1cc2ccc(Br)cc2[nH]1`, 0.042 µM (≈ 0.0157 µg/mL); that for `CCCCCCCCNC(=O)c1cc2c(Cl)cc(Cl)cc2[nH]1`, over 300 µM.

These data come from ChEMBL document CHEMBL4477209, “Indole-2-carboxamide-based MmpL3 Inhibitors Show Exceptional Antitubercular Activity in an Animal Model of Tuberculosis Infection” (J Med Chem, 2016).
